Results published in US20070031482A1, “PDT treatment method for cellulites and cosmetic use” (CeramOptec Industries, Ind., priority 2005, published 2007).

Tests used:
[1] = cited from earlier work
cellulites = experiment: PDT treatment of cellulites with Temoporfin solution by Mesotherapy and diode laser (Example 1); type: in vivo, patient; details: 1 session per area, followed by appropriate physiotherapy / complementary session (ultrasound, lymph-drainage, electro-stimulation); evaluation after 30 days
Protocol: A patient having cellulites is treated with Temoporfin in several sessions. The variables in this treatment program are as follows: • 1.—A determination of the grade of cellulites in the patient. • 2.—A determination of the dose and concentration of Temoporfin and to confirm that it produces an improvement on the cellulites, and to further insure that it is possible to apply it directly by Mesotherapy without the need of systemic introduction. • 3.—A determination as to the potency of Temoporfin based on the time of application to the time of laser application; and • 4.—A determination as to accompanying treatments. In this EXAMPLE, the patient is administered the Temoporfin solution as follows: In all sequences, the treatment consists 1 session only per area to be treated, and, if necessary, it is repeated in 30 days. In general, it was observed that only 1 session followed by appropriate physiotherapy, a complementary session (like ultrasound, lymph-drainage, isotonic and isometric electro-stimulation), was usually sufficient in more than 80% of the patients. If it was necessary to repeat it, an evaluation is done after 30 days. Table 2 presents further information as to the stage of cellulite, concentration of mTHPC (Temoporfin), dose, surface area being treated; strength, power level and time of laser radiation application. [table] […]

[2] = without light activation; cited from earlier work

## Oc1cccc(-c2c3nc(c(-c4cccc(O)c4)c4ccc([nH]4)c(-c4cccc(O)c4)c4nc(c(-c5cccc(O)c5)c5ccc2[nH]5)CC4)C=C3)c1 [Temoporfin]
[1]
  solubility in triglycerides: not soluble in triglycerides
cellulites
  patients in whom only 1 session was usually sufficient: more than 80 % of the patients
[2]
  effect in the dark: totally innocuous and inactive in the dark
